# What was measured:
# [1] = molecular target: T1, NUAK family SNF1-like kinase 2 (Homo sapiens) (UniProt Q9H093); conditions: at 10 µM
# T1 sequence (whole entry): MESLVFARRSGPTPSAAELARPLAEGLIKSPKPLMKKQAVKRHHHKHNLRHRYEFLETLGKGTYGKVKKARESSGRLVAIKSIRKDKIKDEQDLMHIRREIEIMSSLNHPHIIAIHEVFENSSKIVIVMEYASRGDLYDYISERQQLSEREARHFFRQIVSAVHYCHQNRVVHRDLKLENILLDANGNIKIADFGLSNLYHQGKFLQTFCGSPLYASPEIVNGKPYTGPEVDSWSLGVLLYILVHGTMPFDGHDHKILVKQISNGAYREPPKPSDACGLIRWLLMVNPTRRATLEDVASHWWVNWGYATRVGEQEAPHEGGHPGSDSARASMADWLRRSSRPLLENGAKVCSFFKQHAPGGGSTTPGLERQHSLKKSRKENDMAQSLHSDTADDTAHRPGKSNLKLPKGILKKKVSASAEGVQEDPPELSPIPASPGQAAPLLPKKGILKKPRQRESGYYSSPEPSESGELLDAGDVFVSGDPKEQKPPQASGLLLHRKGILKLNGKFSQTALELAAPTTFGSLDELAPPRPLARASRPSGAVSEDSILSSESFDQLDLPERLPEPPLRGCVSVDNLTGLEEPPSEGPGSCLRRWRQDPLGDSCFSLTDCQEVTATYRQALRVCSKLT
# [2] = molecular target: Cyclin-dependent kinase 17 (Homo sapiens) (UniProt Q00537); assay: Selectivity interaction (Kinase panel (KiNativ target engagement assay in Jurkat cells)) EUB0001635a CDK17; format: cell-based; conditions: Selectivity number of off-targets 0.0, Selectivity number of targets 233.0, Source Knowledge https://www.sciencedirect.com/science/article/pii/S2451945619300674?via%3Dihub, at 1 µM
# Chain of Cyclin-dependent kinase 17 (Homo sapiens) (Q00537 whole entry, looked up, the tested form may be a part): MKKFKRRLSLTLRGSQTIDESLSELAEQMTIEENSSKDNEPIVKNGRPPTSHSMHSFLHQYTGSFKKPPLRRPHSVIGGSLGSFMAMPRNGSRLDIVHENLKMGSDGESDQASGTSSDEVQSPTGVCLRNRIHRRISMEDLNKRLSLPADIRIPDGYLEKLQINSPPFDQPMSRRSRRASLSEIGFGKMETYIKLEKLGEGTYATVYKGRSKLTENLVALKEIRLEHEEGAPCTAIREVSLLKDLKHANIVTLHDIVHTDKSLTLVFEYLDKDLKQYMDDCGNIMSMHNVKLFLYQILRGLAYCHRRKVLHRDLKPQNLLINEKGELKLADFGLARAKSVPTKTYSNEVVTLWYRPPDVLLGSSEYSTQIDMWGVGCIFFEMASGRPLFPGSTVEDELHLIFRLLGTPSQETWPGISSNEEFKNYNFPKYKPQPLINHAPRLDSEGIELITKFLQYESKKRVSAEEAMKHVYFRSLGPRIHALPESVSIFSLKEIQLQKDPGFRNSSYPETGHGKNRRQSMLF
# [3] = system: T2, Discoidin domain-containing receptor 2 (Homo sapiens), Q16832 [N456S]; assay: Selectivity interaction (LanthaScreen Eu Kinase Binding Assay) EUB0001632a DDR2; conditions: at 10 µM
# T2 sequence (whole entry): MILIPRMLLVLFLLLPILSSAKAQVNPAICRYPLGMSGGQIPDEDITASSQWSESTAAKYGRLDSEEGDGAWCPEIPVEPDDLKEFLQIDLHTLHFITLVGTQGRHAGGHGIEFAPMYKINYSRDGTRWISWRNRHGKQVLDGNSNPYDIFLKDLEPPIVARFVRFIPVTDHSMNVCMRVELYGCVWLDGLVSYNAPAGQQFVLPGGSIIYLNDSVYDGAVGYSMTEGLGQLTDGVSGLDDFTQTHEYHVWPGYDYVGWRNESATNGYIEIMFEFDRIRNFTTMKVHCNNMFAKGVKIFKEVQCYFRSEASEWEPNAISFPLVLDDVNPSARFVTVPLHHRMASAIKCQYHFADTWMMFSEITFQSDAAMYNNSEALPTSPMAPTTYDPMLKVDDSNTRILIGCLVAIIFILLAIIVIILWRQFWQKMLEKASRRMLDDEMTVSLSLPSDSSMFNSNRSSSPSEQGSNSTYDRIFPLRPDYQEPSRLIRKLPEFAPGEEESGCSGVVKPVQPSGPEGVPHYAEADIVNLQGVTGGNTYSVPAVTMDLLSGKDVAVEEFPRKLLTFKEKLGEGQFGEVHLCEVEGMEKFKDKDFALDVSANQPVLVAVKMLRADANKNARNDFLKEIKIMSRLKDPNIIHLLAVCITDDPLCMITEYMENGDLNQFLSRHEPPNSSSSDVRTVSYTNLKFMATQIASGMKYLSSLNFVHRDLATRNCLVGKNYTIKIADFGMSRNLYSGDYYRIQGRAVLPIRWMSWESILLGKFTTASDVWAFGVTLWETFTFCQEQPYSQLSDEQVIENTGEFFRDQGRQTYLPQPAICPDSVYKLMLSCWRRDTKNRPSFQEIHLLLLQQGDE
# [4] = molecular target: Serine/threonine-protein kinase SMG1 (Homo sapiens) (UniProt Q96Q15); assay: Selectivity interaction (ActivX KiNativ screen (kinase selectivity in THP-1 cell lysates)) EUB0000639a SMG1; format: subcellular; conditions: lysate, at 5 µM
# Chain of Serine/threonine-protein kinase SMG1 (Homo sapiens) (Q96Q15 whole entry): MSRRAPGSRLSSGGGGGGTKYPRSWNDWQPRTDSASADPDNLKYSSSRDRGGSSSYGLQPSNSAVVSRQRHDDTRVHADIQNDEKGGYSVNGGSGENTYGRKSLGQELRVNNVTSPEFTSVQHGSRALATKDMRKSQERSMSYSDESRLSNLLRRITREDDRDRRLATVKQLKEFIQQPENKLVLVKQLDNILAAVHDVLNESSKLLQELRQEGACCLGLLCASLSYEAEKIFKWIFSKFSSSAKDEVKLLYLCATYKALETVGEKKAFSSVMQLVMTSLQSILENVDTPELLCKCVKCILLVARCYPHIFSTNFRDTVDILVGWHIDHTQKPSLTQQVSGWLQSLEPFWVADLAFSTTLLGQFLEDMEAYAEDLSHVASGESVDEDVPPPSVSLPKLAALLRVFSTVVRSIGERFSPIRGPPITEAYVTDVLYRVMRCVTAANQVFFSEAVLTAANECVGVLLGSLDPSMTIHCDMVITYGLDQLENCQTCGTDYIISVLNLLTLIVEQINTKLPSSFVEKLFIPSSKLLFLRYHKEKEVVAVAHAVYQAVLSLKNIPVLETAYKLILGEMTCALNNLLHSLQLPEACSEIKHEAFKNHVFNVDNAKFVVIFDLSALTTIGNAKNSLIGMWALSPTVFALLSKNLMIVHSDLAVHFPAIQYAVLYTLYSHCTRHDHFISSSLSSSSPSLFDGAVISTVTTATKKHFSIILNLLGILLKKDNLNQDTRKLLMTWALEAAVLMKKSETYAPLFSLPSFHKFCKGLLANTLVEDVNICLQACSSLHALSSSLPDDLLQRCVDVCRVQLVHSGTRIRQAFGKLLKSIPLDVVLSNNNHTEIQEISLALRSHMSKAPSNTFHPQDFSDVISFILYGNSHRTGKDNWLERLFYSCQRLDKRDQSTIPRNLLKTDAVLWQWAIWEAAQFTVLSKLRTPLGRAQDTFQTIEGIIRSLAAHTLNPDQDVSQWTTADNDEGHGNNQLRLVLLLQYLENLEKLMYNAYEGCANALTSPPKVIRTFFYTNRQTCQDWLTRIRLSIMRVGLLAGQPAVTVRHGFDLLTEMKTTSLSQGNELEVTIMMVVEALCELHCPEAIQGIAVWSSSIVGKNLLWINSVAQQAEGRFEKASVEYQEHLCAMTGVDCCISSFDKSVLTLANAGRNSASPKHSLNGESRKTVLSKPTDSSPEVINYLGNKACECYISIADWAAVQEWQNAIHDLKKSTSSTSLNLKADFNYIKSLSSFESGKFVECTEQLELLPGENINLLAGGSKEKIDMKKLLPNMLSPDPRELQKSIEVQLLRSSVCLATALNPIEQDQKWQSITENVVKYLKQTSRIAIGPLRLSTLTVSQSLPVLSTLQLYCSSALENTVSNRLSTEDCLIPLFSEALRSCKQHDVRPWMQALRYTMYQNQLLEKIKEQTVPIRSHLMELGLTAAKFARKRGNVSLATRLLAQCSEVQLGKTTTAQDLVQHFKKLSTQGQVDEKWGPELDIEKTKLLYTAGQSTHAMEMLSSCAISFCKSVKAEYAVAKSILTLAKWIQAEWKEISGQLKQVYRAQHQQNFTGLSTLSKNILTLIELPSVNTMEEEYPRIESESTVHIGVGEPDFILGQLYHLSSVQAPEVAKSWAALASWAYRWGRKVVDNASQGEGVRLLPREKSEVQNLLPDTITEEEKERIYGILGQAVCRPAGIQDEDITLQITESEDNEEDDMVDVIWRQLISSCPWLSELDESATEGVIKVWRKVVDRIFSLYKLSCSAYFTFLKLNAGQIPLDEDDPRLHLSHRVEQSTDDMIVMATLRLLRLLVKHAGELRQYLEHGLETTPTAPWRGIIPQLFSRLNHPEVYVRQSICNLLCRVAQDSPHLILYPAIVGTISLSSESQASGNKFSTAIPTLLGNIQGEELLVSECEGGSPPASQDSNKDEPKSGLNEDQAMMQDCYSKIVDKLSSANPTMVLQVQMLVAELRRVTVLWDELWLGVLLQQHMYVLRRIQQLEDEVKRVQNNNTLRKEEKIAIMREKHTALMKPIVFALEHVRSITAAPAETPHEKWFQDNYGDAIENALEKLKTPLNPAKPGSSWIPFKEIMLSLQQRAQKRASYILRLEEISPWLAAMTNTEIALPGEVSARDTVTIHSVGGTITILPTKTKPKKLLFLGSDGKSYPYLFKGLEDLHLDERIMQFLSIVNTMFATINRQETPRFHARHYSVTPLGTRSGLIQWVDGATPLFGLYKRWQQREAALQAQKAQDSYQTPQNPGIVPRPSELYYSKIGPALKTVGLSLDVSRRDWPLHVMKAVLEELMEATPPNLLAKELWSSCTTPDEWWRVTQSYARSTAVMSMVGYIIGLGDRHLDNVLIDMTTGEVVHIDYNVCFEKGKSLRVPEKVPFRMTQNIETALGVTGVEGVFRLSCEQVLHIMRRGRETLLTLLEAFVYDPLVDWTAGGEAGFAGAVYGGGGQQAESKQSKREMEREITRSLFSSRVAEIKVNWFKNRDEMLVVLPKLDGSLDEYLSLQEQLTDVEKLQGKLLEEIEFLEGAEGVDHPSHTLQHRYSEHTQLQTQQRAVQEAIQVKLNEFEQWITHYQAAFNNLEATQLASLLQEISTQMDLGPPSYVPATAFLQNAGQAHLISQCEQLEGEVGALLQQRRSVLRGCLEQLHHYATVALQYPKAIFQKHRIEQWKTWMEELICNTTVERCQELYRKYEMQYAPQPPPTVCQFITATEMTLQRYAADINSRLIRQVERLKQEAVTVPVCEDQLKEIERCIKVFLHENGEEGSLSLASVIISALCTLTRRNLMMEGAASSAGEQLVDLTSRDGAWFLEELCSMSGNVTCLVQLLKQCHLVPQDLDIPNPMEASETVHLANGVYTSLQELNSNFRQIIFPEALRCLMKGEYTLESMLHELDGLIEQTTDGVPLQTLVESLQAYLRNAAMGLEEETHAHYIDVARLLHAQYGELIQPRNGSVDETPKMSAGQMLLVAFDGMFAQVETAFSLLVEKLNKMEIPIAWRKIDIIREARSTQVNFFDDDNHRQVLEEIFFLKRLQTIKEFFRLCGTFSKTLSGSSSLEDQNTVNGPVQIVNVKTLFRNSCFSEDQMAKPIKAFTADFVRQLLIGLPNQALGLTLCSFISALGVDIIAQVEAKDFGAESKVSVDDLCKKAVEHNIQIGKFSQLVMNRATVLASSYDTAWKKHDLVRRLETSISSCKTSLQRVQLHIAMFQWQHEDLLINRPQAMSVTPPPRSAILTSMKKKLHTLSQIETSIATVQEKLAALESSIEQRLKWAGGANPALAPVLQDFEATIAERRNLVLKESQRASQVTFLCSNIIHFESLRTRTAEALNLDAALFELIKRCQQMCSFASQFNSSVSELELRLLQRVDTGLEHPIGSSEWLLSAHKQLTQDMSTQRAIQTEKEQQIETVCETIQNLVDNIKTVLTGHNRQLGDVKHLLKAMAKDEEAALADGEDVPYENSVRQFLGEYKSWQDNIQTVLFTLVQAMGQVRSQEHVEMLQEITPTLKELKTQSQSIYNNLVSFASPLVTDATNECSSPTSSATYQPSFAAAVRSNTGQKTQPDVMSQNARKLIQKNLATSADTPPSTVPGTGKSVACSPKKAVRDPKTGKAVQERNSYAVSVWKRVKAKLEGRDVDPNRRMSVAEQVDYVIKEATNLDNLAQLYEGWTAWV
# [5] = molecular target: T3, Mitogen-activated protein kinase kinase kinase kinase 2 (Homo sapiens) (UniProt Q12851); assay: Selectivity interaction (SelectScreen profiling (Invitrogen)) EUB0000607a MAP4K2; conditions: at 2 µM
# T3 sequence (whole entry): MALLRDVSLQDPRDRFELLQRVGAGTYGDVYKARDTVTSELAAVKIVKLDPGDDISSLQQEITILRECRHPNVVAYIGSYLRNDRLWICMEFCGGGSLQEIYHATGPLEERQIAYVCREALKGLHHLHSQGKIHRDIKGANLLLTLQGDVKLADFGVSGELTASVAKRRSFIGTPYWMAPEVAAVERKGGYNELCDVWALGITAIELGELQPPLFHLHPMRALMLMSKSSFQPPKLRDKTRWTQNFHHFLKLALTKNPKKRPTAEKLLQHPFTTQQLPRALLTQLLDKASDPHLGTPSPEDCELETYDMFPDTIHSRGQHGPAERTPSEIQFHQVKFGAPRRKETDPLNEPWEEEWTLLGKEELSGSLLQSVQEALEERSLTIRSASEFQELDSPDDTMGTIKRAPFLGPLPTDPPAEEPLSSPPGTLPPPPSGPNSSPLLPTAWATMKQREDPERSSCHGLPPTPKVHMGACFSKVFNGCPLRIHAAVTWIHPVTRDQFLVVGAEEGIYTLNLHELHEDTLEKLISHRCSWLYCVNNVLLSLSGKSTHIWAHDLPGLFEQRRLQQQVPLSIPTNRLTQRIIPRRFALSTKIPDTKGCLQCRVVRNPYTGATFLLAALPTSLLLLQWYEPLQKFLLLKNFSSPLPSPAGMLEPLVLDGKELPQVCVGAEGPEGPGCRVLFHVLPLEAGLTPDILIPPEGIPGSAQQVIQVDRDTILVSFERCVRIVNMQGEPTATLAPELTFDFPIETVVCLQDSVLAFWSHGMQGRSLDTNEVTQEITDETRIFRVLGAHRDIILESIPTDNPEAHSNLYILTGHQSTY
# [6] = molecular target: Serine/threonine-protein kinase mTOR (Homo sapiens, UniProt P42345); assay: Selectivity interaction (KinomeScan (DiscoverX)) EUB0000695a MTOR; conditions: at 100 nM
# [7] = molecular target: Wee1-like protein kinase (Homo sapiens) (UniProt P30291); assay: Selectivity interaction (KinomeScan (DiscoverX)) EUB0001619a WEE1; conditions: at 1 µM
# Chain of Wee1-like protein kinase (Homo sapiens) (P30291 whole entry, looked up): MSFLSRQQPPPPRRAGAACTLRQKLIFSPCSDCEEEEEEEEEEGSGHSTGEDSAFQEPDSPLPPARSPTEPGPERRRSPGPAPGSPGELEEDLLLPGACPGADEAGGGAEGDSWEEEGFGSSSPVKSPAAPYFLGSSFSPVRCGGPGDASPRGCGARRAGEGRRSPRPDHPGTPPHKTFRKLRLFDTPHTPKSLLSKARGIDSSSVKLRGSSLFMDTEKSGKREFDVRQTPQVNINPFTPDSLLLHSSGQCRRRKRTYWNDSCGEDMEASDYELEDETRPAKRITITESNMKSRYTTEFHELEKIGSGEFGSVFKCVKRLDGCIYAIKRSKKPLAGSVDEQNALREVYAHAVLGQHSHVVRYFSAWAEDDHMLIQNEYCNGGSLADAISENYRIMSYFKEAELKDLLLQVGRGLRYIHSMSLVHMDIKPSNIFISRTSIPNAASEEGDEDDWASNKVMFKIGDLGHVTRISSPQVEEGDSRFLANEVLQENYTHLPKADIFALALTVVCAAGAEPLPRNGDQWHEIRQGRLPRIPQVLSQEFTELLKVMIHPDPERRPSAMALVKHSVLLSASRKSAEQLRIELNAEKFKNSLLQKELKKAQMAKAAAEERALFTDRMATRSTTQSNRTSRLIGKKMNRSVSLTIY
structure (smiles),measurement,setting,value
CCN(CC)CCCCNc1ncc2cc(-c3cc(OC)cc(OC)c3)c(NC(=O)NC(C)(C)C)nc2n1,% of control,[1],100%
C=CC(=O)Nc1ccc(C(=O)Nc2[nH]nc3c2CN(C(=O)N[C@H](CN(C)C)c2ccccc2)C3(C)C)cc1,% of engagement,[2],9.3%
Cn1cc(-n2cnc3c(NCc4nc5cc(Cl)c(Cl)cc5[nH]4)nc(N4CCOCC4)nc32)cn1,% of inhibition,[3],-20.1%
CC[C@@H]1[C@H](F)C(=O)N[C@@H]1COc1nccc2cc(C(N)=O)c(OC)cc12 [ZIMLOVISERTIB],% of inhibition,[4],-11.2%
CNC(=O)Nc1ccc(-c2nc(N3CC4CCC(C3)O4)c3cnn(C4CCC5(CC4)OCCO5)c3n2)cc1,% of inhibition,[5],3%
Cc1cc(F)c(C(=O)Nc2cccc(-c3nncn3C(C)C)n2)cc1-n1cnc(C2CC2)c1,% of control,[6],100%
N#Cc1cccc(-c2c[nH]c3ncnc(N4CCOCC4)c23)c1,% of control,[7],100%
